# Data published in ChEMBL document CHEMBL3860081, “Design, synthesis and biological evaluation of lapachol derivatives possessing indole scaffolds as topoisomerase I inhibitors” (Bioorg Med Chem, 2016).
# Calls of active or inactive are those of the source. No cut-off for these calls is given here.
# How the values were obtained:
# [1] = Cytotoxicity against HEEC assessed as decrease in cell proliferation after 48 hrs by MTT assay; type: toxicity; details: human, HEEC cells
# [2] = Cytotoxicity against human HeLa cells assessed as decrease in cell proliferation after 48 hrs by MTT assay; type: functional, cell-based
# [3] = Cytotoxicity against human ECA109 cells assessed as decrease in cell proliferation after 48 hrs by MTT assay; type: functional, cell-based; details: ECa-109, 48 h
# [4] = molecular target: T1, DNA topoisomerase 1 (Homo sapiens) (UniProt P11387); experiment: Inhibition of DNA topoisomerase-1 (unknown origin)-mediated supercoiled pBR322 DNA relaxation at 25 uM after 30 mins by agarose gel electrophoresis
# T1 sequence (whole entry): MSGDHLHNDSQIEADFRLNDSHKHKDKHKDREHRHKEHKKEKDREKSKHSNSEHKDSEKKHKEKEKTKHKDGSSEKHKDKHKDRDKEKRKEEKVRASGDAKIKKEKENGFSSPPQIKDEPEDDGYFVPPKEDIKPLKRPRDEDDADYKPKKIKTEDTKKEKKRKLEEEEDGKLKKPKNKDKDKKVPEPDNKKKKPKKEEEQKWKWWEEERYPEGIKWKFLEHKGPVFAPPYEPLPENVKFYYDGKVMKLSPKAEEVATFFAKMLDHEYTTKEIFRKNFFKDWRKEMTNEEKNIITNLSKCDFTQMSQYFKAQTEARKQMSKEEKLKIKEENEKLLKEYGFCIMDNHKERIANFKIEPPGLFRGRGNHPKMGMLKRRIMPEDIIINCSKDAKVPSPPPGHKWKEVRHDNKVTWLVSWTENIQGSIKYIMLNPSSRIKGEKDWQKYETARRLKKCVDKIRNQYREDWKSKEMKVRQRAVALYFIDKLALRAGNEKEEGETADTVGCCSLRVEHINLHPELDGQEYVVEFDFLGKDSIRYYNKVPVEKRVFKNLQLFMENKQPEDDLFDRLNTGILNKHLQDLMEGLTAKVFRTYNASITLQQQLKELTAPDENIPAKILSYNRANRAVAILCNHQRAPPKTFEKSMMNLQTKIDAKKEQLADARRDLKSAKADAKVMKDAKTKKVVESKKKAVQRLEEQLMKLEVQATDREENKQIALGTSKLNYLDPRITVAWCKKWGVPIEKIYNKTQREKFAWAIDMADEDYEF
# HeLa [5] = experiment: Induction of apoptosis in human HeLa cells assessed as chromatin condensation at IC50 after 48 hrs by Hoechst 33342 staining-based fluorescence microscopic method; type: functional, cell-based
# HeLa [6] = experiment: Induction of apoptosis in human HeLa cells assessed as chromatin fragmentation at IC50 after 48 hrs by Hoechst 33342 staining-based fluorescence microscopic method; type: functional, cell-based
# [7] = molecular target: T1, DNA topoisomerase 1 (Homo sapiens); experiment: Inhibition of DNA topoisomerase-1 (unknown origin)-mediated supercoiled pBR322 DNA relaxation at 100 uM after 30 mins by agarose gel electrophoresis
# [8] = molecular target: T1, DNA topoisomerase 1 (Homo sapiens); experiment: Inhibition of DNA topoisomerase-1 (unknown origin)-mediated supercoiled pBR322 DNA relaxation at 5 uM after 30 mins by agarose gel electrophoresis
inhibition [4],inhibition [7],inhibition [8],Structure (SMILES),IC50 at 48 h [1],IC50 [2],IC50 [3],Activity (HeLa [5]),Activity (HeLa [6])
–,–,–,CC[C@@]1(O)C(=O)OCc2c1cc1n(c2=O)Cc2cc3ccccc3nc2-1 [CAMPTOTHECIN],17.7 µM,11.4 µM,9.52 µM,–,–
–,–,–,O=C1C(O)=C(C(c2ccccc2)c2c(-c3ccccc3)[nH]c3ccccc23)C(=O)c2ccccc21 (stereo not given),26.4 µM,18.8 µM,5.18 µM,–,–
–,–,–,O=C1C(O)=C(C(c2ccc(F)cc2)c2c[nH]c3ccccc23)C(=O)c2ccccc21 (stereo not given),65.2 µM,15.8 µM,28.1 µM,–,–
–,–,–,O=C1C(O)=C(C(c2cccs2)c2c[nH]c3ccccc23)C(=O)c2ccccc21 (stereo not given),31.2 µM,12.4 µM,12.1 µM,–,–
–,–,–,O=C1C(O)=C(C(c2ccc([N+](=O)[O-])cc2)c2c[nH]c3ccc(Br)cc23)C(=O)c2ccccc21 (stereo not given),45.2 µM,14.1 µM,16.9 µM,–,–
–,–,–,O=C1C(O)=C(C(c2ccc(Cl)cc2)c2c[nH]c3ccccc23)C(=O)c2ccccc21 (stereo not given),102 µM,37 µM,45.8 µM,–,–
Active,–,–,COc1ccc(C(C2=C(O)C(=O)c3ccccc3C2=O)c2c[nH]c3ccccc23)cc1Br (stereo not given),25.2 µM,7.32 µM,11.8 µM,–,–
–,–,–,COc1cccc(C(C2=C(O)C(=O)c3ccccc3C2=O)c2c[nH]c3ccccc23)c1 (stereo not given),110 µM,25.6 µM,40 µM,–,–
Active,–,–,O=C1C(O)=C(C(c2cccc([N+](=O)[O-])c2)c2c(-c3ccccc3)[nH]c3ccccc23)C(=O)c2ccccc21 (stereo not given),13.4 µM,12.5 µM,5.83 µM,–,–
–,–,–,O=C1C(O)=C(C(c2cccc([N+](=O)[O-])c2)c2c[nH]c3ccccc23)C(=O)c2ccccc21 (stereo not given),91.2 µM,24.9 µM,36.1 µM,–,–
–,–,–,COc1ccccc1C(C1=C(O)C(=O)c2ccccc2C1=O)c1c[nH]c2ccccc12 (stereo not given),> 200 µM,128 µM,> 200 µM,–,–
–,–,–,Cc1[nH]c2ccccc2c1C(C1=C(O)C(=O)c2ccccc2C1=O)c1ccc(Cl)cc1 (stereo not given),40.2 µM,8.03 µM,14.3 µM,–,–
Active,–,–,Cc1[nH]c2ccccc2c1C(C1=C(O)C(=O)c2ccccc2C1=O)c1ccc([N+](=O)[O-])cc1 (stereo not given),15.1 µM,4.57 µM,6 µM,Active,Active
–,–,–,CC(C)=CCC1=C(O)C(=O)c2ccccc2C1=O [LAPACHOL],20.2 µM,20.4 µM,12.6 µM,–,–
–,Active,–,COc1cc(C(C2=C(O)C(=O)c3ccccc3C2=O)c2c[nH]c3ccc(Br)cc23)cc(OC)c1OC (stereo not given),36.3 µM,9.71 µM,13 µM,–,–
–,–,–,O=C1C(O)=C(C(c2ccc([N+](=O)[O-])cc2)c2c[nH]c3ccccc23)C(=O)c2ccccc21 (stereo not given),> 200 µM,14.8 µM,60.9 µM,–,–
–,–,Active,O=C1C(O)=C(C(c2ccc([N+](=O)[O-])cc2)c2c(-c3ccccc3)[nH]c3ccccc23)C(=O)c2ccccc21 (stereo not given),14.2 µM,6.77 µM,5.08 µM,Active,Active
